Data: patent US6914045B2, “Glycopeptide antibiotics” (Wyeth Holdings Corporation, priority 2001, dated 2005)
In brackets after ≈: the same amount, converted by molar mass.

How the values were obtained:
Test in all cases: in vitro antibacterial evaluation, MIC by broth dilution
Type in all cases: cell-based
Streptococcus sp. = system: Streptococcus sp.
Outline: (§1)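 MIC = lowest antibiotic concentration preventing visible growth; inoculum 5×10^5 CFU/mL; drug range 64-0.06 μg/mL; Muller-Hinton II […]; NCCLS M7-A2 guidance.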

Enterococcus sp. = system: Enterococcus sp.
Outline: as §1

Staphylococcus sp. = details: broth dilution, 18 hours at 35° C.; for MIC Staphylococcus aureus (ATCC 29213): strain ATCC 29213; for MIC Staphylococcus aureus (GC 1131): strain GC 1131; for MIC Staphylococcus aureus (GC 3051): strain GC 3051; for MIC Staphylococcus aureus (GC 3053): strain GC 3053; for MIC Staphylococcus aureus (GC 4541): strain GC 4541; for MIC Staphylococcus aureus (GC 4542): strain GC 4542; for MIC Staphylococcus aureus (GC 4544): strain GC 4544; for MIC Staphylococcus aureus (GC 4545): strain GC 4545
Outline: as §1

Escherichia coli = details: 18 hours at 35° C.
Outline: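 Broth dilution MIC per NCCLS M7-A2 in Mueller-Hinton II medium, inoculum 5×10^5 CFU/mL, antibiotic range 64-0.06 μg/mL. MIC taken as lowest concentration inhibiting growth.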

[1] = broth dilution, 18 hours at 35° C.

CCCCCCCN1CC(C(O)C2NC(=O)C(C(O)C3CNC(=N)N3)NC(=O)C(Cc3ccc(OC4OC(CO)C(OC5OC6COC7(OC6C(O)C5O)C5CC6CC(C5)CC7C6)C(O)C4O)cc3)NC(=O)C(C(C)c3ccccc3)NC(=O)CNC(=O)C(CO)NC2=O)N(C2OC(CO)C(O)C(O)C2O)C1=N (centres unmarked) [Example 83]
MIC Streptococcus agalactiae (GC 4564) (Streptococcus sp.; [1]): 0.25 µg/mL (≈ 0.164 µM) | MIC Streptococcus pneumoniae (ATCC 6301) (Streptococcus sp.; [1]): 0.5 µg/mL (≈ 0.328 µM) | MIC Streptococcus pneumoniae (GC 1894) (Streptococcus sp.; [1]): <0.12 µg/mL | MIC Streptococcus pneumoniae (GC 4565) (Streptococcus sp.; [1]): 0.25 µg/mL (≈ 0.164 µM) | MIC Streptococcus pyogenes (GC 4563) (Streptococcus sp.; [1]): 0.25 µg/mL (≈ 0.164 µM) | MIC Streptococcus pneumoniae (ATCC 6301) (Streptococcus sp.; broth dilution, 18 hours at 35° C.; strain ATCC 6301): 0.5 µg/mL (≈ 0.328 µM) | MIC Streptococcus pneumoniae (GC 1894) (Streptococcus sp.; broth dilution, 18 hours at 35° C.; strain GC 1894): <0.12 µg/mL | MIC Streptococcus pyogenes (GC 4563) (Streptococcus sp.; broth dilution, 18 hours at 35° C.; strain GC 4563): 0.25 µg/mL (≈ 0.164 µM) | MIC Streptococcus agalactiae (GC 4564) (Streptococcus sp.; broth dilution, 18 hours at 35° C.; strain GC 4564): 0.25 µg/mL (≈ 0.164 µM) | MIC Streptococcus pneumoniae (GC 4565) (Streptococcus sp.; broth dilution, 18 hours at 35° C.; strain GC 4565): 0.25 µg/mL (≈ 0.164 µM) | MIC Enterococcus avium (GC 4558) (Enterococcus sp.; Enterococcus avium (GC 4558); broth dilution, 18 hours at 35° C.): 2 µg/mL (≈ 1.31 µM) | MIC Enterococcus faecalis (ATCC 29212) (Enterococcus sp.; Enterococcus faecalis (ATCC 29212); broth dilution, 18 hours at 35° C.): 4 µg/mL (≈ 2.62 µM) | MIC Enterococcus faecalis (GC 4552) (Enterococcus sp.; Enterococcus faecalis (GC 4552); broth dilution, 18 hours at 35° C.): 4 µg/mL (≈ 2.62 µM) | MIC Enterococcus faecalis (GC 4553) (Enterococcus sp.; Enterococcus faecalis (GC 4553); broth dilution, 18 hours at 35° C.): 2 µg/mL (≈ 1.31 µM) | MIC Enterococcus faecalis (GC 4554) (Enterococcus sp.; Enterococcus faecalis (GC 4554); broth dilution, 18 hours at 35° C.): 4 µg/mL (≈ 2.62 µM) | MIC Enterococcus faecalis (GC 6189) (Enterococcus sp.; Enterococcus faecalis (GC 6189); broth dilution, 18 hours at 35° C.): 4 µg/mL (≈ 2.62 µM) | MIC Enterococcus faecium (GC 2243) (Enterococcus sp.; Enterococcus faecium (GC 2243); broth dilution, 18 hours at 35° C.): 2 µg/mL (≈ 1.31 µM) | MIC Enterococcus faecium (GC 4556) (Enterococcus sp.; Enterococcus faecium (GC 4556); broth dilution, 18 hours at 35° C.): 4 µg/mL (≈ 2.62 µM) | MIC Enterococcus faecium (GC 4557) (Enterococcus sp.; Enterococcus faecium (GC 4557); broth dilution, 18 hours at 35° C.): 1 µg/mL (≈ 0.655 µM) | MIC Enterococcus avium (GC 4558) (Enterococcus sp.; [1]): 2 µg/mL (≈ 1.31 µM) | MIC Enterococcus faecalis (ATCC 29212) (Enterococcus sp.; [1]): 4 µg/mL (≈ 2.62 µM) | MIC Enterococcus faecalis (GC 2242) (Enterococcus sp.; [1]): 4 µg/mL (≈ 2.62 µM) | MIC Enterococcus faecalis (GC 2691) (Enterococcus sp.; [1]): 4 µg/mL (≈ 2.62 µM) | MIC Enterococcus faecalis (GC 3059) (Enterococcus sp.; [1]): 4 µg/mL (≈ 2.62 µM) | MIC Enterococcus faecalis (GC 4552) (Enterococcus sp.; [1]): 4 µg/mL (≈ 2.62 µM) | MIC Enterococcus faecalis (GC 4553) (Enterococcus sp.; [1]): 2 µg/mL (≈ 1.31 µM) | MIC Enterococcus faecalis (GC 4554) (Enterococcus sp.; [1]): 4 µg/mL (≈ 2.62 µM) | MIC Enterococcus faecalis (GC 6189) (Enterococcus sp.; [1]): 4 µg/mL (≈ 2.62 µM) | MIC Enterococcus faecium (GC 2243) (Enterococcus sp.; [1]): 2 µg/mL (≈ 1.31 µM) | MIC Enterococcus faecium (GC 4556) (Enterococcus sp.; [1]): 4 µg/mL (≈ 2.62 µM) | MIC Enterococcus faecium (GC 4557) (Enterococcus sp.; [1]): 1 µg/mL (≈ 0.655 µM) | MIC Enterococcus faecalis (GC 2242) (Enterococcus sp.; broth dilution, 18 hours at 35° C.; strain GC 2242): 4 µg/mL (≈ 2.62 µM) | MIC Enterococcus faecalis (GC 2691) (Enterococcus sp.; broth dilution, 18 hours at 35° C.; strain GC 2691): 4 µg/mL (≈ 2.62 µM) | MIC Enterococcus faecalis (GC 3059) (Enterococcus sp.; broth dilution, 18 hours at 35° C.; strain GC 3059): 4 µg/mL (≈ 2.62 µM) | MIC Coagulase Negative Staphylococcus (GC 4547) (Staphylococcus sp.): 2 µg/mL (≈ 1.31 µM) | MIC Coagulase Negative Staphylococcus (GC 4548) (Staphylococcus sp.): 1 µg/mL (≈ 0.655 µM) | MIC Coagulase Negative Staphylococcus (GC 4549) (Staphylococcus sp.): 2 µg/mL (≈ 1.31 µM) | MIC Coagulase Negative Staphylococcus (GC 4551) (Staphylococcus sp.): 2 µg/mL (≈ 1.31 µM) | MIC Staphylococcus aureus-SMITH (GC 4543) (Staphylococcus sp.): 2 µg/mL (≈ 1.31 µM) | MIC Staphylococcus haemolyticus (GC 4546) (Staphylococcus sp.): 2 µg/mL (≈ 1.31 µM) | MIC Staphylococcus aureus (ATCC 29213) (Staphylococcus sp.): 2 µg/mL (≈ 1.31 µM) | MIC Staphylococcus aureus (GC 1131) (Staphylococcus sp.): 4 µg/mL (≈ 2.62 µM) | MIC Staphylococcus aureus (GC 3051) (Staphylococcus sp.): 4 µg/mL (≈ 2.62 µM) | MIC Staphylococcus aureus (GC 3053) (Staphylococcus sp.): 4 µg/mL (≈ 2.62 µM) | MIC Staphylococcus aureus (GC 4541) (Staphylococcus sp.): 2 µg/mL (≈ 1.31 µM) | MIC Staphylococcus aureus (GC 4542) (Staphylococcus sp.): 4 µg/mL (≈ 2.62 µM) | MIC Staphylococcus aureus-SMITH (GC 4543) (Staphylococcus sp.; strain GC 4543): 2 µg/mL (≈ 1.31 µM) | MIC Staphylococcus aureus (GC 4544) (Staphylococcus sp.): 4 µg/mL (≈ 2.62 µM) | MIC Staphylococcus aureus (GC 4545) (Staphylococcus sp.): 2 µg/mL (≈ 1.31 µM) | MIC Staphylococcus haemolyticus (GC 4546) (Staphylococcus sp.; strain GC 4546): 2 µg/mL (≈ 1.31 µM) | MIC Coagulase Negative Staphylococcus (GC 4547) (Staphylococcus sp.; strain GC 4547): 2 µg/mL (≈ 1.31 µM) | MIC Coagulase Negative Staphylococcus (GC 4548) (Staphylococcus sp.; strain GC 4548): 1 µg/mL (≈ 0.655 µM) | MIC Coagulase Negative Staphylococcus (GC 4549) (Staphylococcus sp.; strain GC 4549): 2 µg/mL (≈ 1.31 µM) | MIC Coagulase Negative Staphylococcus (GC 4551) (Staphylococcus sp.; strain GC 4551): 2 µg/mL (≈ 1.31 µM) | MIC Escherichia coli (ATCC 25922) (Escherichia coli): 64 µg/mL (≈ 41.9 µM) | MIC Escherichia coli (GC 4559) (Escherichia coli): 32 µg/mL (≈ 21 µM) | MIC Escherichia coli (GC 4560) (Escherichia coli): 2 µg/mL (≈ 1.31 µM)

CC(=O)Nc1cc(CC2NC(=O)C(C(C)c3ccccc3)NC(=O)CNC(=O)C(CO)NC(=O)C(C(O)C3CNC(=N)N3C3OC(CO)C(O)C(O)C3O)NC(=O)C(C(O)C3CNC(=N)N3)NC2=O)ccc1O (stereo not drawn) [Example 13, Cyclo[-glycyl-β-methylphenylalanyl-3-acetamidotyrosyl-3-(2-iminoimidazolidin-4-yl)seryl-3-(3-hexopyranosyl-2-iminoimidazolodin-4-yl)serylseryl]]
MIC Streptococcus pneumoniae (ATCC 6301) (Streptococcus sp.; strain ATCC 6301; broth dilution, 18 hours at 35° C.): 4 µg/mL (≈ 3.89 µM) | MIC Streptococcus pneumoniae (GC 1894) (Streptococcus sp.; strain GC 1894; broth dilution, 18 hours at 35° C.): 2 µg/mL (≈ 1.95 µM) | MIC Streptococcus pyogenes (GC 4563) (Streptococcus sp.; strain GC 4563; broth dilution, 18 hours at 35° C.): 8 µg/mL (≈ 7.78 µM) | MIC Streptococcus agalactiae (GC 4564) (Streptococcus sp.; strain GC 4564; broth dilution, 18 hours at 35° C.): 16 µg/mL (≈ 15.6 µM) | MIC Streptococcus pneumoniae (GC 4565) (Streptococcus sp.; strain GC 4565; broth dilution, 18 hours at 35° C.): 4 µg/mL (≈ 3.89 µM) | MIC Enterococcus faecalis (ATCC 29212) (Enterococcus sp.; strain ATCC 29212; broth dilution, 18 hours at 35° C.): >64 µg/mL | MIC Enterococcus faecalis (GC 2242) (Enterococcus sp.; strain GC 2242; broth dilution, 18 hours at 35° C.): 64 µg/mL (≈ 62.3 µM) | MIC Enterococcus faecium (GC 2243) (Enterococcus sp.; strain GC 2243; broth dilution, 18 hours at 35° C.): 64 µg/mL (≈ 62.3 µM) | MIC Enterococcus faecalis (GC 2691) (Enterococcus sp.; strain GC 2691; broth dilution, 18 hours at 35° C.): >64 µg/mL | MIC Enterococcus faecalis (GC 3059) (Enterococcus sp.; strain GC 3059; broth dilution, 18 hours at 35° C.): >64 µg/mL | MIC Enterococcus faecalis (GC 4552) (Enterococcus sp.; strain GC 4552; broth dilution, 18 hours at 35° C.): >64 µg/mL | MIC Enterococcus faecalis (GC 4553) (Enterococcus sp.; strain GC 4553; broth dilution, 18 hours at 35° C.): 64 µg/mL (≈ 62.3 µM) | MIC Enterococcus faecalis (GC 4554) (Enterococcus sp.; strain GC 4554; broth dilution, 18 hours at 35° C.): >64 µg/mL | MIC Enterococcus faecium (GC 4556) (Enterococcus sp.; strain GC 4556; broth dilution, 18 hours at 35° C.): 64 µg/mL (≈ 62.3 µM) | MIC Enterococcus faecium (GC 4557) (Enterococcus sp.; strain GC 4557; broth dilution, 18 hours at 35° C.): 64 µg/mL (≈ 62.3 µM) | MIC Enterococcus avium (GC 4558) (Enterococcus sp.; strain GC 4558; broth dilution, 18 hours at 35° C.): 64 µg/mL (≈ 62.3 µM) | MIC Enterococcus faecalis (GC 6189) (Enterococcus sp.; strain GC 6189; broth dilution, 18 hours at 35° C.): >64 µg/mL | MIC Staphylococcus aureus (ATCC 29213) (Staphylococcus sp.): 64 µg/mL (≈ 62.3 µM) | MIC Staphylococcus aureus (GC 1131) (Staphylococcus sp.): 64 µg/mL (≈ 62.3 µM) | MIC Staphylococcus aureus (GC 3051) (Staphylococcus sp.): 64 µg/mL (≈ 62.3 µM) | MIC Staphylococcus aureus (GC 3053) (Staphylococcus sp.): 64 µg/mL (≈ 62.3 µM) | MIC Staphylococcus aureus (GC 4541) (Staphylococcus sp.): 64 µg/mL (≈ 62.3 µM) | MIC Staphylococcus aureus (GC 4542) (Staphylococcus sp.): 64 µg/mL (≈ 62.3 µM) | MIC Staphylococcus aureus-SMITH (GC 4543) (Staphylococcus sp.; strain GC 4543): 64 µg/mL (≈ 62.3 µM) | MIC Staphylococcus aureus (GC 4544) (Staphylococcus sp.): 64 µg/mL (≈ 62.3 µM) | MIC Staphylococcus aureus (GC 4545) (Staphylococcus sp.): 64 µg/mL (≈ 62.3 µM) | MIC Staphylococcus haemolyticus (GC 4546) (Staphylococcus sp.; strain GC 4546): 64 µg/mL (≈ 62.3 µM) | MIC Coagulase Negative Staphylococcus (GC 4547) (Staphylococcus sp.; strain GC 4547): 64 µg/mL (≈ 62.3 µM) | MIC Coagulase Negative Staphylococcus (GC 4548) (Staphylococcus sp.; strain GC 4548): 64 µg/mL (≈ 62.3 µM) | MIC Coagulase Negative Staphylococcus (GC 4549) (Staphylococcus sp.; strain GC 4549): 32 µg/mL (≈ 31.1 µM) | MIC Coagulase Negative Staphylococcus (GC 4551) (Staphylococcus sp.; strain GC 4551): 64 µg/mL (≈ 62.3 µM) | MIC Coagulase Negative Staphylococcus (GC 6257) (Staphylococcus sp.; strain GC 6257): 32 µg/mL (≈ 31.1 µM) | MIC Escherichia coli (ATCC 25922) (Escherichia coli; strain ATCC 25922, broth dilution): >64 µg/mL | MIC Escherichia coli (GC 4559) (Escherichia coli; strain GC 4559, broth dilution): >64 µg/mL | MIC Escherichia coli (GC 4560) (Escherichia coli; strain GC 4560, broth dilution): 32 µg/mL (≈ 31.1 µM)
